Results on 4 compounds are retold here after patent publication US4302540A, “Process of producing optically active cephalosporin analogs by enzyme selective deacylation” (Kyowa Hakko Kogyo Co., Ltd., priority 1979, dated 1981).

What all share (assay): Antimicrobial activity, Heart Infusion Agar Dilution Method (pH 7.2)
Holding throughout (assay type): cell-based
A general note: In agar dilution, organisms are placed on agar that contains the substance at set levels.

In test [1] the test system is Serratia marcescens T-26.
Test [2] deals with Pseudomonas aeruginosa #1. From the text: (§1) Antimicrobial activities of the compound obtained in Reference Example 9 are as follows. Heart Infusion Agar Dilution Method (pH 7.2) is used.
The subject of test [3] is Pseudomonas putida 264.
From the text: as §1

For test [4], the system named is Staphylococcus epidermidis.
From the text: as §1

For test [5], the system named is Pseudomonas aeruginosa 145.
From the text: as §1

In test [6] the test system is Proteus morganii KY 4298.
From the text: as §1

Test [7] relates to Klebsiella pneumoniae 8045.
Test [8] concerns Escherichia coli Juhl.
Test [9] concerns Escherichia coli NIHJC-2. The note with it: NIHJC2.
For test [10], the system named is Proteus mirabilis 1287.
The subject of test [11] is Klebsiella pneumoniae Y-60. As to conditions: Y60.
Test [12] concerns Serratia marcescens T-55. As to conditions: T55.
From the text: as §1

The test system of test [13] is Proteus rettgeri KY 4289. As to conditions: Providencia rettgeri, KY4289.
From the text: as §1

In test [14] the test system is Proteus vulgaris 6897.
From the text: as §1

Test [15] concerns Escherichia coli GN2411-5.
From the text: as §1

Test [16] relates to Staphylococcus aureus Smith.
From the text: as §1

Test [17] has as its system Staphylococcus aureus 209-P.
From the text: as §1

Setting [18] is: Morganella morganii, KY4298, read-out: MIC.

Structures are written as SMILES. In brackets after ≈: the same amount, converted by molar mass. Like-named read-outs stand apart in the source and are kept apart here.

Usually MIC stands for the lowest concentration found to suppress growth. As for `N[C@@H](C(=O)NC1C(=O)N2C(C(=O)O)=CC(O)CC12)c1ccccc1` (stereo in doubt) [C, cis-7β-[(R)-2-phenylglycinamido]-4α-hydroxy-1-azabicyclo[4,2,0]oct-2-en-8-on-2-carboxylic acid], the MIC in [1] was 100 µg/mL (≈ 302 µM); in [2], over 100 µg/mL; in [3], 12.5 µg/mL (≈ 37.7 µM); in test [4], 12.5 µg/mL (≈ 37.7 µM); in test [5] it was over 100 µg/mL; in test [6], 12.5 µg/mL (≈ 37.7 µM).
`CO/N=C(\C(=O)N[C@@H]1C(=O)N2C(C(=O)O)=C[C@@H](O)C[C@H]12)c1csc(N)n1` (relative stereo) [B, (±)-cis-7β-[2-(2-amino-4-thiazolyl)-2-syn-methoxyiminoacetamido]-4α-hydroxy-1-azabicyclo[4,2,0]oct-2-en-8-on-2-carboxylic acid]: the MIC in [7] was 0.02 µg/mL (≈ 0.0524 µM); in test [8], 0.05 µg/mL (≈ 0.131 µM); in [9], 0.05 µg/mL (≈ 0.131 µM); in [10], 0.1 µg/mL (≈ 0.262 µM); in [11] it was 0.02 µg/mL (≈ 0.0524 µM); in test [12] it was 0.02 µg/mL (≈ 0.0524 µM). Further, the MIC in test [13] is under 0.01 µg/mL; in test [3] (read-out: MIC), 0.02 µg/mL (≈ 0.0524 µM); in [4] (read-out: MIC), 50 µg/mL (≈ 131 µM); in test [14], 0.1 µg/mL (≈ 0.262 µM); in [15], 0.02 µg/mL (≈ 0.0524 µM); in test [16] it was 25 µg/mL (≈ 65.6 µM). Besides, the MIC was 12.5 µg/mL (≈ 32.8 µM) in [5] (read-out: MIC) and 0.05 µg/mL (≈ 0.131 µM) in test [6] (setting [18]).
As for `Cc1nnc(SCC2=C(C(=O)O)N3C(=O)[C@@H](NC(=O)Cn4cnnn4)[C@H]3SC2)s1` [Cefazolin, reference compound], the MIC is over 100 µg/mL in test [1] (T26, read-out: MIC); 12.5 µg/mL (≈ 27.5 µM) in [10]; 3.12 µg/mL (≈ 6.86 µM) in test [11]; over 100 µg/mL in test [2] (read-out: MIC); over 100 µg/mL in [12]; 25 µg/mL (≈ 55 µM) in test [13]. In addition, the MIC in test [3] (read-out: MIC) was over 100 µg/mL; in test [4] (read-out: MIC), 0.78 µg/mL (≈ 1.72 µM); in test [14] it was 25 µg/mL (≈ 55 µM); in test [15], 0.78 µg/mL (≈ 1.72 µM); in test [16] it was 0.78 µg/mL (≈ 1.72 µM); in [5] (read-out: MIC), over 100 µg/mL. The figures for the minimal inhibitory concentration (MIC) in test [6] (setting [18]) and in test [17] were over 100 µg/mL and 0.02 µg/mL (≈ 0.044 µM), respectively.
Turning to `CO/N=C(\C(=O)N[C@@H]1C(=O)N2C(C(=O)O)=C[C@@H](O)C[C@H]12)c1csc(N)n1` [A, (4S,6R,7S)-7-[2-(2-amino-4-thiazolyl)-2-syn-methoxyiminoacetamido]-4-hydroxy-1-azabicyclo[4,2,0]oct-2-en-8-on-2-carboxylic acid], the MIC was at most 0.01 µg/mL in test [7]; at most 0.01 µg/mL in test [8]; 0.02 µg/mL (≈ 0.0524 µM) in test [9]; 0.05 µg/mL (≈ 0.131 µM) in test [10]; at most 0.01 µg/mL in [11]; 0.05 µg/mL (≈ 0.131 µM) in test [12]. The minimum inhibitory concentration (MIC) in [13] was at most 0.01 µg/mL; in [3] (read-out: MIC) it was 0.02 µg/mL (≈ 0.0524 µM); in test [4] (read-out: MIC) it was 25 µg/mL (≈ 65.6 µM); in test [14], at most 0.01 µg/mL; in test [15], at most 0.01 µg/mL; in test [16], 12.5 µg/mL (≈ 32.8 µM). Further, the MIC was 6.25 µg/mL (≈ 16.4 µM) in [5] (read-out: MIC) and at most 0.01 µg/mL in [6] (setting [18]).
